Results as given in paper PMC10349804, “Natural resveratrol analogs differentially target endometriotic cells into apoptosis pathways” (Scientific Reports, 2023).
Values joined by “and” are separate entries in the source; they are usually repeats but may differ in a detail not shown here. Equal values may be shown once.

Assays:
[1] = tested on: endometriotic epithelial 12Z cells; assay: MTT reduction assay, cell viability; type: cell-based, human; conditions: for IC10 / IC50: 12Z cells, 48-h incubation; for IC50: Homo sapiens
Method: (§1) The effect of resveratrol and its natural analogs on the viability of endometriotic epithelial 12Z cells and endometrial stromal T HESC cells was assessed using the MTT assay. Table 1 presents the IC10 and IC50 values (the inhibitor concentration required for 10% and 50% reduction in […]) obtained after 48-h incubation with the tested compounds. […] The cytotoxicity of resveratrol and pterostilbene to 12Z cells was not markedly different. T HESC and 12Z cells varied in susceptibility to the treatment with stilbenes tested, as evidenced by the cytotoxic doses shown in Table 1. […] Similarly, resveratrol evoked much weaker cytotoxic effects in T HESC cells than in 12Z cells. Polydatin at concentrations up to 400 µM was not cytotoxic to the T HESC cells, while at a dose of 86.76 µM, it induced the first cytotoxic symptoms in 12Z cells. […] The increased susceptibility of endometriotic 12Z cells than endometrial T HESC cells to resveratrol and its natural analogs was consistent in both assays (Fig. 1).
(§2) The immortalized human endometriotic epithelial cells (12Z), derived from peritoneal endometriosis lesions, were obtained from Applied Biological Materials Inc. (Richmond, Canada). The 12Z cells were cultured in Dulbecco's Modified Eagle Medium/Nutrient Mixture F-12 (DMEM/F12), containing 10% fetal bovine serum (FBS) and 50 mg/L gentamycin. American Type Culture Collection (ATCC, Manassas, VA, USA) was the source for human endometrial stromal cells immortalized by telomerase (T HESC, CRL-4003). The cells were maintained routinely in phenol red-free DMEM/F12 supplemented with 10% charcoal/dextran treated FBS, 1% ITS + 1, and 50 mg/L gentamycin, at 37 °C and 5% CO2. Both cell lines were negative for mycoplasma contamination; mycoplasma-free cells were confirmed repeatedly during the study.
(§3) Cells were seeded at a density of 0.15 × 10^5 cells/cm^2 in 6-well plates. The 24-h cell cultures were treated with resveratrol and its derivatives for 48 h under standard culture conditions. Camptothecin was applied as a reference apoptosis inducer; its final concentrations were set to 5 µM and 50 µM.
(§4) Cell viability and metabolic activity were determined using the MTT colorimetric assay, according to the protocol described in previous studies. Based on the obtained data, the dose–response curves were plotted, and inhibitory concentrations (IC) were calculated. In addition, cell proliferation was measured using the alamarBlue™ Cell Viability Reagent (Invitrogen, Carlsbad, CA, USA) according to the manufacturer's protocol. Fluorescence was measured using a Tecan M200 Infinite microplate reader (Tecan Group Ltd., Männedorf, Switzerland).

[2] = tested on: endometrial stromal T HESC cells; assay: MTT reduction assay, cell viability; type: cell-based, human; conditions: for IC50: Homo sapiens; for IC50 / IC10: T HESC cells, 48-h incubation, MTT
Method: as §1, §2, §3, §4

[3] = tested on: endometriotic 12Z cells; assay: TUNEL assay of DNA fragmentation, flow cytometry; type: cell-based, human; conditions: 48 h
Method: Cell death via apoptosis in 12Z cells after exposure to resveratrol and its natural derivatives was determined by detecting DNA fragmentation (Fig. 5). DNA degradation was correlated in a dose-dependent manner. […] Tunel-positive cell population in the 12Z cell culture treated with camptothecin was estimated at 32.5%, compared to 0.6% in the vehicle-treated control culture.
The detection of DNA fragmentation in 12Z cells was performed using the terminal deoxynucleotidyl-transferase-mediated dUTP nick end labeling (TUNEL) assay with In Situ Cell Death Detection Kit (Roche Diagnostics, Indianapolis, IN, USA). The test detects DNA breakage that is identified by terminal deoxynucleotidyl transferase. After treatment, the harvested cells were fixed in 4% paraformaldehyde and permeabilized in 0.1% Triton X-100. After washing in PBS, cells were subjected to TUNEL labeling with fluorescein-labeled dUTP and terminal deoxynucleotidyl transferase mixture. Cells were analyzed by flow cytometry using an Amnis™ FlowSight™ flow cytometer.

[4] = tested on: caspases-3/7; assay: APO-One Homogenous Caspase-3/7 Assay in 12Z cells; type: cell-based, human
Method: Resveratrol evoked a dose-dependent caspase-3/7 activation in 12Z cells (F = 2467.29, p < 0.0001). […] It was consistent with the results of CASP3 gene expression activation. […] There was a 2.8-fold activation of caspase 3/7 enzymes following treatment with piceatannol at a 200 μM dose, which complies with the CASP3 mRNA expression level.
To quantitate the proteolytic activity of caspase 3 and 7, we performed an assay based on the proteolytic cleavage of the C-terminal side of the aspartate residue in the DEVD peptide substrate by caspase 3/7 and into the fluorescent rhodamine 110. Caspase 3/7 activity was determined using the APO-One Homogenous Caspase-3/7 Assay (Promega Corporation, Wisconsin, USA) following the manufacturer's instructions. The obtained data were normalized to cellular protein content. The total protein was quantified by BCA assay (Pierce® BCA Protein Assay Kit, Thermo Scientific Inc., USA) according to the manufacturer's protocol.

[5] = tested on: endometriotic 12Z cells; assay: Annexin V/PI double staining, flow cytometry; type: cell-based, human; conditions: 50 µM, 100 µM, 200 µM, 48 h
Method: After treating endometriotic 12Z cells with stilbenes, the phosphatidylserine externalization was measured by Annexin V and PI double staining (Fig. 4A). Examples of the single-cell images from sub-populations: live cells (Annexin V/PI-double negative), early apoptotic cells (Annexin V-positive/PI-negative), late apoptotic cells (Annexin V/PI-double positive), necrotic cells (Annexin V-negative/PI-positive) are presented in Fig. 4B.
Figure 4 Flow cytometry analysis of endometriotic 12Z cells stained with PI and FITC-Annexin V. Cells were treated with resveratrol, pterostilbene, piceatannol, polydatin and their vehicle (0.5% ethanol) for 48 h. Camptothecin was used as a positive control. (A) Representative images of each distinct cellular subset. n = 4; scale bars = 20 μm. (B) Representative flow cytometry dot plots. (C) Summary of FITC-Annexin V and PI stained populations in 12Z cell cultures. […] The results are presented as means ± SD. *p < 0.05, **p < 0.01, ***p < 0.001 compared to vehicle control.
Apoptosis was determined by Annexin V and propidium iodide (PI) double staining with the FITC Annexin V Apoptosis Detection kit (BD Pharmingen, Heidelberg, Germany) by flow cytometry according to the manufacturer's instructions. […] The cells were analyzed with an Amnis™ FlowSight™ flow cytometer (Luminex Corporation, TX, USA). […]

[6] = tested on: BAX, FAS, CASP3, CASP8, and CASP9 genes; assay: Real-time PCR, proapoptotic gene panel in 12Z cells; type: cell-based, human
From the text: (§5) Figure 7 Effect of resveratrol and its analogs on the mRNA expression of BCL2, BCL2L1, BAX, FAS, CASP3, CASP8, and CASP9 genes in endometriotic 12Z cells, assessed by real-time PCR. Data were normalized against β-actin and expressed as relative mRNA expression (-fold of control). The values represent the means (n = 3) ± SD. Significant differences *p < 0.05; **p < 0.01; ***p < 0.001 compared to vehicle control.
The FAS overexpression depended on the concentration of stilbenes, reaching a relative expression up to tenfold higher in treated endometriotic cells. The role of proteases in resveratrol-, pterostilbene-, and piceatannol-induced apoptosis was also indicated by the upregulation of well-known initiator caspases of the mitochondrial and death receptor apoptotic pathways such as caspases 8, 9 and executioner caspase 3 (Fig. 7).
Gene expression analysis was carried out according to the previously described protocol. TRI reagent was applied for total RNA isolation, synthesis cDNA Transcriptor First-Strand kit (Roche Diagnostics GmbH, Mannheim, Germany) for first-strand cDNA synthesis, and SYBR® Select Master Mix (Life Technologies, Carlsbad, CA, USA) for real-time PCR. […] Relative mRNA expression was shown as fold change calculated using the 2^−ΔΔCt method compared with control cells.

[7] = tested on: epithelial 12Z cells; design: method as in PMID 35361545; conditions: 100 µM, 48-h treatment; cited from earlier work
[8] = tested on: endometriotic 12Z cells; assay: Cell cycle analysis by PI staining, flow cytometry; type: cell-based, human; conditions: 100 µM, 48 h
Method: To investigate whether resveratrol and its analogs have interfered with cell cycle progression in endometriotic 12Z cells, we analyzed the cell cycle distribution by flow cytometry. […] The largest subpopulation of apoptotic cells was found in the cell cultures treated with resveratrol and pterostilbene at the concentration of 100 µM (31.2 ± 8.0% and 33.1 ± 9.7%, respectively) and piceatannol at a concentration of 200 µM (45.1 ± 5. 6%).
Cell cycle progression was analyzed by flow cytometry using PI staining. After treatment, 12Z cells were collected, washed with PBS, and fixed in 70% ethanol. The cells were then washed, resuspended in PBS, and stained with 50 μg/ml PI in the presence of 100 μg/ml RNase A. Cell cycle distribution was analyzed using a FACSCanto flow cytometer (Becton Dickinson, San Jose, CA, USA). Data analysis was performed with the FACS Diva software (Becton Dickinson).

[9] = tested on: BAX gene; assay: Real-time PCR, BAX mRNA expression in 12Z cells; type: cell-based, human; conditions: 50 µM, fold of control, normalized against β-actin
From the text: The effect of resveratrol and its natural analogs on the expression of pro- or antiapoptotic regulators, was examined by real-time PCR. […] BAX overexpression was also documented in 12Z cells exposed to resveratrol.
as §5
Gene expression analysis was carried out according to the previously described protocol. TRI reagent was applied for total RNA isolation, synthesis cDNA Transcriptor First-Strand kit (Roche Diagnostics GmbH, Mannheim, Germany) for first-strand cDNA synthesis, and SYBR® Select Master Mix (Life Technologies, Carlsbad, CA, USA) for real-time PCR. The levels of transcripts were normalized using β-actin as an internal control, which was previously applied in 12Z cells. Relative mRNA expression was shown as fold change calculated using the 2^−ΔΔCt method compared with control cells.

[10] = tested on: endometrial stromal St-T1b cells; design: method as in PMID 35361545; conditions: 100 µM, 48-h treatment; cited from earlier work
[11] = tested on: endometrial stromal cells derived from patients with endometriosis; design: method as in PMID 33083332, PMID 26782781; conditions: cited from earlier work
[12] = tested on: CASP3 gene; assay: Real-time PCR, caspase-3 mRNA expression in 12Z cells; type: cell-based, human; conditions: concentration not given
From the text: as §5
We analyzed the activation of caspases at the molecular and cellular levels. […] Caspase 3 expression in pterostilbene-induced apoptosis in endometriotic cells was much weaker, even though this compound generated the most significant number of DNA strand breaks. […] It has now been recognized that in response to apoptotic stimuli, mitochondria can also release caspase-independent cell death effectors such as apoptosis-inducing factor (AIF) and endonuclease G. Following release and translocation to the nucleus, AIF becomes an active executioner of the cell death by the initiation of large-scale DNA fragmentation^37. It is essential to realize that apoptosis evolved complex death pathways, which overlap with each other. […]
Gene expression analysis was carried out according to the previously described protocol. […] Relative mRNA expression was shown as fold change calculated using the 2^−ΔΔCt method compared with control cells.

Row | Structure (SMILES) | IC10 [1] | IC50 [1] [µM] | IC50 [2] [µM] | IC10 [2] | DNA strand breaks (TUNEL-positive cells) ([3]; 100 µM) | caspase-3/7 activity increase ([4]; 200 µM) [fold] | apoptosis stage induced (Annexin V/PI) [5] | cytotoxicity to T HESC cells ([2]; concentrations up to 400 µM) | DNA strand breaks (TUNEL-positive cells) ([3]; concentration not given) [%] | mRNA transcripts of BAX, FAS, CASP3, CASP8, and CASP9 genes [6] | caspase 3/7 activity change ([4]; concentration not given) | reduction of cell viability [7] [%] | subpopulation of apoptotic cells (lower DNA content, subG1) [8] [%] | cytotoxicity in 12Z versus T HESC cells, comparing IC50 values ([1]; 48 h) | BAX mRNA expression increase [9] | caspase-3/7 activity increase ([4]; 100 µM) [fold] | reduction of cell viability [10] [%] | endometriotic stromal cell viability (reduced to) ([11]; 200 μM) | influence on viability of endometrial stromal cells ([11]; concentrations up to 100 μM, 48-h treatment) | caspase-3 mRNA expression upregulation [12] [fold]
1 | Oc1cc(O)cc(C=Cc2ccc(O)c(O)c2)c1 [Piceatannol, 3,3′,4,5′-tetrahydroxystilbene] | 167.50 ± 11.36 µM | 224 ± 6.47 | 364 ± 17 | 222.68 ± 14.49 ^# µM | 49.6% and ~50% | 2.8 | – | – | – | – | – | – | – | – | – | – | – | – | – | –
2 | OC[C@H]1O[C@@H](Oc2cc(O)cc(/C=C/c3ccc(O)cc3)c2)[C@H](O)[C@@H](O)[C@@H]1O [Polydatin, 3,4′,5-trihydroxystilbene-3-β-D-glucoside] | 86.76 µM and 86.76 ± 10.01 µM | 243 ± 22.5 | > 400 | > 400 µM | – | – | increased population of early apoptosis cells without induction of late apoptosis | not cytotoxic | 1.08 | did not significantly increase | not significantly changed | – | – | – | – | – | – | – | – | –
3 | Oc1ccc(/C=C/c2cc(O)cc(O)c2)cc1 [Resveratrol] | 8.99 ± 4.29 µM | 49.3 ± 11.4 | 251 ± 1.58 | 160.35 ± 7.05 µM | 42.8% | – | – | – | – | – | – | 45.4 | 31.2 ± 8.0 | fivefold higher | approximately sevenfold | 10.3 | 49.2 | approximately 50% | did not influence the viability | 7.3
4 | CC[C@@]1(O)C(=O)OCc2c1cc1n(c2=O)Cc2cc3ccccc3nc2-1 [camptothecin, reference compound] | – | – | – | – | – | – | – | – | 32.5 | – | – | – | – | – | – | – | – | – | – | –
